Laboratory results: publication PMC12521730, “Quantitative dual-isotope preclinical SPECT/CT imaging and biodistribution of the mercury-197m/g theranostic pair with [^197m/gHg]HgCl2 and a [^197m/gHg]Hg-tetrathiol complex as a platform for radiopharmaceutical development” (EJNMMI Radiopharmacy and Chemistry, 2025)

Test: Ex vivo biodistribution (gamma counter)
Type: in vivo, healthy male C57BL/6 mice
Settings: Hg-197m, 2 h post administration
Experimental: For animal injection, the tracer was prepared at high molar activity. Radiolabeling of H4Tetrathiol (10^–2 M in DMSO; 40 μL for imaging, 20 μL for bioD) (or DMSO, for [^197m/gHg]HgCl2 mice) with [^197m/gHg]HgCl2 (imaging: 26.7 MBq total m + g, 62 μL; bioD: 13.04 MBq total m + g, 31 μL) was performed in a mixture of ammonium acetate buffer (1 M; pH 7; 198 μL for imaging or 149 μL for bioD) and 6 M NaOH (72 μL or 38 μL required to achieve a pH of 7.5 after addition of activity, for imaging or BioD labeling, respectively). The reaction was allowed to stand for 1 h at 37 °C and quantitative (> 99%) non-isolated percentage radiochemical yield (%RCY) was confirmed via the iTLC methods mentioned above. Further, 100 µL of the reaction was diluted with 50 µL of PBS Tween-20 (0.01 M sodium phosphate, 0.15 M NaCl, 0.05% Tween-20) for imaging mice, or 50 µL of the reaction was diluted with 100 µL of PBS Tween-20 for BioD mice. The tracers were prepared immediately before injection to avoid radiolysis and minimize the tracer loss to any surfaces due to its lipophilicity. The injected doses of each isomer, ^197mHg and ^197gHg, were quantified by measuring an aliquot of known volume of each tracer preparation via HPGe gamma spectroscopy and decay corrected for time of injection using the Eqs. (1) and (2).
The study was conducted in compliance with the guidelines set by the Canadian Council on Animal Care (CCAC) and approved by the Animal Care Committee (ACC) at the University of British Columbia (A20-0132). A total of eight healthy male C57BL/6 mice weighing approximately 30 g for group 1 and 25 g for group 2 were used in the study. The mice were divided into two experimental groups: group 1 (n = 4) received free [^197m/gHg]HgCl2, while group 2 (n = 4) received [^197m/gHg]Hg-Tetrathiol. Within each group, one mouse was allocated for imaging, while the rest were designated for ex vivo biodistribution analysis. For SPECT imaging, the designated mice were anesthetized using isoflurane via a precision vaporizer. […] Once anesthetized, each imaging mouse received an intravenous (IV) injection via the lateral tail vein of 150 μL of [^197m/gHg]HgCl2 (0.492 MBq ^197mHg + 3.171 MBq ^197gHg) or [^197m/gHg]Hg-Tetrathiol (0.899 MBq ^197mHg + 4.230 MBq ^197gHg) in PBS Tween-20 (0.01 M Na Phosphate, 0.15 M NaCl, 0.05% Tween-20).
Mice received an IV injection of [^197m/gHg]HgCl2 (0.275 MBq ^197mHg + 1.758 MBq ^197gHg, 150 μL) or [^197m/gHg]Hg-Tetrathiol (0.384 MBq ^197mHg + 1.733 MBq ^197gHg, 150 μL) (n = 3 per group) via the lateral tail vein using a Tailveiner restrainer. After the injection, the mice were returned to their experimental cages and allowed unrestricted movement. Biodistribution studies were conducted 2 h after administration. Mice were humanely euthanized with an overdose of isoflurane followed by cardiac puncture to collect blood pool activity. The organs of interest were fully extracted, cleaned of blood without rinsing, weighed, and analysed for radioactivity using a calibrated gamma counter with the 55–93 keV energy window for ^197gHg and the 110–160 keV energy window for ^197mHg (Packard Cobra II, Perkin Elmer, Waltham, MA, USA). The stomach and intestines were carefully cleaned prior to analysis to remove residual contents. For tissues and fluids that could not be fully removed (muscle, blood and bone) activity values were extrapolated based on standardised organ weights for age- and sex-matched mice tables to ensure accurate normalization (Davies and Morris [1993]; Foster et al. [2014]). The stomach and whole intestines were cleaned before analysis. The radioactivity measurements were decay corrected for time of injection using the Eqs. (1) and (2). The results are reported as the percentage of the injected activity per gram of tissue (%IA/g) and percentage of the injected activity per tissue (%IA/organ).

O=C(CC[S-])OCC(COC(=O)CC[S-])(COC(=O)CC[S-])COC(=O)CC[S-].[Hg+2] [[^197m/gHg]Hg-Tetrathiol]
Animal 2 (%IA/g) m: blood: 0.13 %IA/g | Animal 2 (%IA/g) m: bone: 1.62 %IA/g | Animal 2 (%IA/g) m: brain: 0.02 %IA/g | Animal 2 (%IA/g) m: feces: 0.05 %IA/g | Animal 2 (%IA/g) m: heart: 0.59 %IA/g | Animal 2 (%IA/g) m: kidneys: 2.35 %IA/g | Animal 2 (%IA/g) m: large intestine: 0.05 %IA/g | Animal 2 (%IA/g) m: lungs: 7.04 %IA/g | Animal 2 (%IA/g) m: muscle: 0.02 %IA/g | Animal 2 (%IA/g) m: pancreas: 0.04 %IA/g | Animal 2 (%IA/g) m: small intestine: 0.08 %IA/g | Animal 2 (%IA/g) m: spleen: 79.95 %IA/g | Animal 2 (%IA/g) m: stomach: 0.37 %IA/g | Animal 2 (%IA/g) m: tail: 1.39 %IA/g | Animal 2 (%IA/g) m: urine: 0.03 %IA/g | Animal 3 (%IA/g) m: bladder: 0.04 %IA/g | Animal 3 (%IA/g) m: blood: 0.15 %IA/g | Animal 3 (%IA/g) m: bone: 1.38 %IA/g | Animal 3 (%IA/g) m: brain: 0.04 %IA/g | Animal 3 (%IA/g) m: feces: 0.01 %IA/g | Animal 3 (%IA/g) m: heart: 0.70 %IA/g | Animal 3 (%IA/g) m: kidneys: 3.71 %IA/g | Animal 3 (%IA/g) m: large intestine: 0.12 %IA/g | Animal 3 (%IA/g) m: lungs: 9.69 %IA/g | Animal 3 (%IA/g) m: muscle: 0.02 %IA/g | Animal 3 (%IA/g) m: pancreas: 0.09 %IA/g | Animal 3 (%IA/g) m: small intestine: 0.10 %IA/g | Animal 3 (%IA/g) m: spleen: 108.27 %IA/g | Animal 3 (%IA/g) m: stomach: 1.02 %IA/g | Animal 3 (%IA/g) m: tail: 0.66 %IA/g | Animal 3 (%IA/g) m: urine: 0.03 %IA/g | Animal 4 (%IA/g) m: bladder: 0.07 %IA/g | Animal 4 (%IA/g) m: blood: 0.12 %IA/g | Animal 4 (%IA/g) m: bone: 1.62 %IA/g | Animal 4 (%IA/g) m: brain: 0.02 %IA/g | Animal 4 (%IA/g) m: feces: 0.01 %IA/g | Animal 4 (%IA/g) m: heart: 0.64 %IA/g | Animal 4 (%IA/g) m: kidneys: 3.03 %IA/g | Animal 4 (%IA/g) m: large intestine: 0.05 %IA/g | Animal 4 (%IA/g) m: lungs: 7.69 %IA/g | Animal 4 (%IA/g) m: muscle: 0.02 %IA/g | Animal 4 (%IA/g) m: pancreas: 0.05 %IA/g | Animal 4 (%IA/g) m: small intestine: 0.15 %IA/g | Animal 4 (%IA/g) m: spleen: 101.18 %IA/g | Animal 4 (%IA/g) m: stomach: 0.12 %IA/g | Animal 4 (%IA/g) m: tail: 7.32 %IA/g | Animal 4 (%IA/g) m: urine: 0.04 %IA/g | Average Hg-197m (%IA/g): bladder: 0.044 %IA/g | Average Hg-197m (%IA/g): blood: 0.13 %IA/g | Average Hg-197m (%IA/g): bone: 1.68 %IA/g | Average Hg-197m (%IA/g): brain: 0.028 %IA/g | Average Hg-197m (%IA/g): feces: 0.026 %IA/g | Average Hg-197m (%IA/g): heart: 0.60 %IA/g | Average Hg-197m (%IA/g): kidneys: 3.65 %IA/g | Average Hg-197m (%IA/g): large intestine: 0.091 %IA/g | Average Hg-197m (%IA/g): lungs: 8.38 %IA/g | Average Hg-197m (%IA/g): muscle: 0.017 %IA/g | Average Hg-197m (%IA/g): pancreas: 0.056 %IA/g | Average Hg-197m (%IA/g): small intestine: 0.12 %IA/g | Average Hg-197m (%IA/g): spleen: 91.06 %IA/g | Average Hg-197m (%IA/g): stomach: 0.42 %IA/g | Average Hg-197m (%IA/g): tail: 2.77 %IA/g | Average Hg-197m (%IA/g): urine: 0.033 %IA/g
